US8461150B2, “Chalcone linked pyrrolo[2,1-c][1, 4]benzodiazepine hybrids as potential anticancer agents and process for the preparation thereof” (Council of Scientific & Industrial Research, priority 2008, dated 2013)

How the values were obtained:
Experiment in all cases: NCI in vitro anticancer screen, SRB assay, 48 h, panel average
Assay type in all cases: cell-based, human
Conditions in all cases: average of six to eight cell lines, 48 h exposure
[1] = tested on: Non-small cell lung cancer cell lines
Method: (§1) Biological Activity: The in vitro cell line studies were carried out at the National Cancer Institute, Maryland, USA.
(§2) Cytotoxicity: • The compounds 6b) 7-Methoxy-8-{4-[1-(4-fluorophenyl)-3-(4-hydroxy-3-methoxyphenyl)-2-propen-1-one]butyl}-oxy-(11aS)-1,2,3,11a-5H-pyrrolo[2,1-c][1,4]benzodiazepin-5-one; • (6c) 7-Methoxy-8-{5-[1-(4-fluorophenyl)-3-(4-hydroxy-3-methoxyphenyl)-2-propen-1-one]pentyl}-oxy-(11aS)-1,2,3,11a-5H-pyrrolo[2,1-c][1,4]benzodiazepin-5-one; • (6g) 7-Methoxy-8-{3-[1-(2-hydroxyphenyl)-3-(4-hydroxy-3-methoxyphenyl)-2-propen-1-one]propyl}-oxy-(11aS)-1,2,3,11a-5H-pyrrolo[2,1-c][1,4]benzodiazepin-5-one; • (10a) 7-Methoxy-8-{3-[3-(4-hydroxy-3-methoxyphenyl)-1-(2,4-dimethyl-3-quinolyl)-2-propen-1-one]propyl}-oxy-(11aS)-1,2,3,11a-5H-pyrrolo[2,1-c][1,4]benzodiazepin-5-one • (10b) 7-Methoxy-8-{4-[3-(4-hydroxy-3-methoxyphenyl)-1-(2,4-dimethyl-3-quinolyl)-2-propen-1-one]butyl}-oxy-(11aS)-1,2,3,11a-5H-pyrrolo[2,1-c][1,4]benzodiazepin-5-one; were evaluated for in vitro anticancer activity against […] derived from […] (leukemia, ovarian, renal, melanoma, CNS, colon, prostate, lung, cervix and breast cancer) as shown in (Table 1, 2 and 3)
(§3) 6b, 6c, 6g, 10a and 10b were evaluated for in vitro anticancer activity against sixty human tumour cells derived from nine cancer types (leukemia, non-small-cell lung, colon, CNS, melanoma, ovarian, prostate, renal and breast cancer) as shown in (Table 1 and 2). For the compound, dose response curves for each cell line were measured at a minimum of five concentrations at 10 fold dilutions. A protocol of 48 h continuous drug exposure was used and a sulforhodamine B (SRB) protein assay was used to estimate cell viability or growth. The concentration causing 50% cell growth inhibition (GI50), total cell growth inhibition (TGI 0% growth) and 50% cell death (LC50, −50% growth) compared with the control was calculated.
(§4) Each cancer type represents the average of six to eight different cancer cell lines.

[2] = tested on: Ovarian cancer cell lines
Method: as §1, §2, §3, §4

[3] = tested on: Prostate cancer cell lines
Method: as §1, §2, §3, §4

[4] = tested on: Leukemia cancer cell lines
Method: as §1, §2, §3, §4

[5] = tested on: Melanoma cancer cell lines
Method: as §1, §2, §3, §4

Breast cancer cell lines = tested on: Breast cancer cell lines
Method: as §1, §2, §3, §4

CNS cancer cell lines = tested on: CNS cancer cell lines
Method: as §1, §2, §3, §4

Renal cancer cell lines = tested on: Renal cancer cell lines
Method: as §1, §2, §3, §4

Colon cancer cell lines = tested on: Colon cancer cell lines
Method: as §1, §2, §3, §4

Structure (SMILES) | Log GI50 (concentration in mol/L causing 50% growth inhibition) [1] [mol/L] | Log GI50 (concentration in mol/L causing 50% growth inhibition) [2] [mol/L] | Log GI50 (concentration in mol/L causing 50% growth inhibition) [3] [mol/L] | Log GI50 (concentration in mol/L causing 50% growth inhibition) [4] [mol/L] | Log GI50 (concentration in mol/L causing 50% growth inhibition) [5] [mol/L] | Log GI50 (concentration in mol/L causing 50% growth inhibition) (Breast cancer cell lines) [mol/L] | Log GI50 (concentration in mol/L causing 50% growth inhibition) (CNS cancer cell lines) [mol/L] | Log GI50 (concentration in mol/L causing 50% growth inhibition) (Renal cancer cell lines) [mol/L] | Log GI50 (concentration in mol/L causing 50% growth inhibition) (Colon cancer cell lines) [mol/L]
COc1cc(C=CC(=O)c2ccc(F)cc2)ccc1OCCCCOc1cc2c(cc1OC)C(=O)N1CCC[C@H]1C=N2 [6b, 7-Methoxy-8-{4-[1-(4-fluorophenyl)-3-(4-hydroxy-3-methoxyphenyl)-2-propen-1-one]butyl}-oxy-(11aS)-1,2,3,11a-5H-pyrrolo[2,1-c][1,4]benzodiazepin-5-one] | −6.84 | −5.56 | −5.63 | −6.84 | −6.65 | −6.57 | −5.91 | −6.67 | −6.53
COc1cc(C=CC(=O)c2ccc(F)cc2)ccc1OCCCCCOc1cc2c(cc1OC)C(=O)N1CCC[C@H]1C=N2 [6c, 7-Methoxy-8-{5-[1-(4-fluorophenyl)-3-(4-hydroxy-3-methoxyphenyl)-2-propen-1-one]pentyl}-oxy-(11aS)-1,2,3,11a-5H-pyrrolo[2,1-c][1,4]benzodiazepin-5-one] | −6.38 | −4.60 | −5.05 | −6.59 | −6.38 | −6.31 | −5.68 | −6.39 | −6.76
COc1cc(C=CC(=O)c2c(C)nc3ccccc3c2C)ccc1OCCCOc1cc2c(cc1OC)C(=O)N1CCC[C@H]1C=N2 [10a, 7-Methoxy-8-{3-[3-(4-hydroxy-3-methoxyphenyl)-1-(2,4-dimethyl-3-quinolyl)-2-propen-1-one]propyl}-oxy-(11aS)-1,2,3,11a-5H-pyrrolo[2,1-c][1,4]benzodiazepin-5-one] | −6.79 | −5.10 | −5.05 | −6.88 | −6.38 | −6.31 | −6.61 | −6.39 | −6.76
COc1cc(C=CC(=O)c2c(C)nc3ccccc3c2C)ccc1OCCCCOc1cc2c(cc1OC)C(=O)N1CCC[C@H]1C=N2 [10b, 7-Methoxy-8-{4-[3-(4-hydroxy-3-methoxyphenyl)-1-(2,4-dimethyl-3-quinolyl)-2-propen-1-one]butyl}-oxy-(11aS)-1,2,3,11a-5H-pyrrolo[2,1-c][1,4]benzodiazepin-5-one] | −6.87 | −5.28 | −5.85 | −6.94 | −6.59 | −6.52 | −6.16 | −6.17 | −6.41
